test system: RKO p21 uninduced (proliferating) colon adenocarcinoma cells; experiment: Alamar Blue cell viability assay, RKO p21 uninduced (proliferating); assay type: cell-based; conditions: Homo sapiens, Table B3, anti-proliferative/cytotoxic activity, 72 hours, read-out: −log EC50 RKO p21 uninduced (proliferating) (converted)
Experimental: The anti-proliferative/cytotoxic activity of the compounds described herein can be tested on subclones of RKO human colon adenocarcinoma cells (Schmidt et al., Oncogene 19, 2423-2429; 2000) using the Alamar Blue cell viability assay (described in O'Brien et al. Eur J Biochem 267, 5421-5426, 2000). The compounds are dissolved as 10 mM solutions in DMSO and subsequently diluted in semi-logarithmic steps. DMSO dilutions are further diluted 1:100 into Dulbecco's modified Eagle's medium (DMEM) containing 10% fetal calf serum to a final concentration twice as much as the final concentration in the test. RKO subclones are seeded into 96 well flat bottom plates at a density of 4000 cells per well in a volume of 50 μl per well. 24 hours after seeding the 50 μl each of the compound dilutions in DMEM medium are added into each well of the 96 well plate. Each compound dilution is tested as triplicates. Wells containing untreated control cells are filled with 50 μl DMEM medium containing 1% DMSO. The cells are then incubated with the substances for 72 hours at 37° C. in a humidified atmosphere containing 5% carbon dioxide. To determine the viability of the cells, 10 μl of an Alamar Blue solution (Biosource) are added and the fluorescence is measured at an extinction of 544 nm and an emission of 590 nm. For the calculation of the cell viability the emission value from untreated cells is set as 100% viability and the emission rates of treated cells are set in relation to the values of untreated cells. Viabilities are expressed as % values. The Graphpad Prism program is used for the calculation of EC50 values for anti-proliferative/cytotoxic activity out of the obtained dose-response curves.
To determine the cell cycle specific mode of action, subclones of RKO colon adenocarcinoma cells (RKOp21 or RKOp27 as described by Schmidt et al. in Oncogene 19, 2423-2429; 2000) are seeded into 96 well flat bottom plates at a density of 16000 cells per well in a volume of 50 μl per well in DMEM growth medium with 10% FCS containing 10 μM Ponasterone A. 24 hours after seeding the 50 μl each of the compound dilutions in DMEM medium are added into each well of the 96-well plate. Each compound dilution is tested as triplicates. Wells containing untreated control cells are filled with 50 μl DMEM medium containing 1% DMSO. The cells are then incubated with the substances for 72 hours at 37° C. in a humidified atmosphere containing 5% carbon dioxide. To determine the viability of the cells, 10 μl of an Alamar Blue solution (Biosource) are added and the fluorescence is measured at an extinction of 544 nm and an emission of 590 nm. For the calculation of the cell viability the emission value from untreated cells is set as 100% viability and the emission rates of treated cells are set in relation to the values of untreated cells. Viabilities are expressed as % values. The Graphpad Prism program (GraphPad Software, Inc) is used for the calculation of EC50 values out of the obtained dose-response curves. Viability is compared of proliferating cells grown in the absence of the inducer Ponasterone A, versus viability of cells arrested by the expression of ectopic p27Kip1 induced by Ponasterone A.
Representative values for anti-proliferation/cytotoxicity [measured as −log EC50 (mol/l)] determined in the aforementioned assays follow from the following tables B1, B2 and B3, in which the numbers of the compounds correspond to the numbers of the examples.

`COc1ccc2[nH]c3c(c2c1)C[C@@]1(C)C(=O)N(CCCN2CCN(C)CC2)C(=O)N1[C@@H]3c1cccc(O)c1` (racemic) [Example 150, (3aSR,10RS)-10-(3-Hydroxy-phenyl)-6-methoxy-3a-methyl-2-[3-(4-methyl-piperazin-1-yl)-propyl]-3a,4,9,10-tetrahydro-2,9,10a-triaza-cyclopenta[b]fluorene-1,3-dione] and `COc1ccc2[nH]c3c(c2c1)C[C@@]1(C)C(=O)N(CCCN2CCN(C(C)=O)CC2)C(=O)N1[C@@H]3c1cccc(O)c1` (racemic) [Example 151, (3aSR,10RS)-2-[3-(4-Acetyl-piperazin-1-yl)-propyl]-10-(3-hydroxy-phenyl)-6-methoxy-3a-methyl-3a,4,9,10-tetrahydro-2,9,10a-triaza-cyclopenta[b]fluorene-1,3-dione] cannot be ordered by EC50: ≤ 39.8 nM for the first, 39.8 to 251 nM for the second.

`CCOc1ccc2[nH]c3c(c2c1)C[C@@]1(C)C(=O)N(CCNC(C)C)C(=O)N1[C@@H]3c1cccc(O)c1` (racemic) [Example 152, (3aSR,10RS)-6-Ethoxy-10-(3-hydroxy-phenyl)-2-(2-isopropylamino-ethyl)-3a-methyl-3a,4,9,10-tetrahydro-2,9,10a-triaza-cyclopenta[b]fluorene-1,3-dione] and `CCOc1ccc2[nH]c3c(c2c1)C[C@@]1(C)C(=O)N(CCNCC(C)C)C(=O)N1[C@@H]3c1cccc(O)c1` (racemic) [Example 153, (3aSR,10RS)-6-Ethoxy-10-(3-hydroxy-phenyl)-2-(2-isobutylamino-ethyl)-3a-methyl-3a,4,9,10-tetrahydro-2,9,10a-triaza-cyclopenta[b]fluorene-1,3-dione] cannot be ordered by EC50: ≤ 39.8 nM for the first, ≤ 39.8 nM for the second.

`CCOc1ccc2[nH]c3c(c2c1)C[C@@]1(C)C(=O)N(CCNC2CCC2)C(=O)N1[C@@H]3c1cccc(O)c1` (racemic) [Example 155, (3aSR,10RS)-2-(2-Cyclobutylamino-ethyl)-6-ethoxy-10-(3-hydroxy-phenyl)-3a-methyl-3a,4,9,10-tetrahydro-2,9,10a-triaza-cyclopenta[b]fluorene-1,3-dione] and `CCOc1ccc2[nH]c3c(c2c1)C[C@@]1(C)C(=O)N(CCNC2CC2)C(=O)N1[C@@H]3c1cccc(O)c1` (racemic) [Example 161, (3aSR,10RS)-2-(2-Cyclopropylamino-ethyl)-6-ethoxy-10-(3-hydroxy-phenyl)-3a-methyl-3a,4,9,10-tetrahydro-2,9,10a-triaza-cyclopenta[b]fluorene-1,3-dione] cannot be ordered by EC50: ≤ 39.8 nM for the first, 39.8 to 251 nM for the second.

`CCOc1ccc2[nH]c3c(c2c1)C[C@@]1(C)C(=O)N(CCNC(C)(C)C)C(=O)N1[C@@H]3c1cccc(O)c1` (racemic) [Example 156, (3aSR,10RS)-2-(2-tert-Butylamino-ethyl)-6-ethoxy-10-(3-hydroxy-phenyl)-3a-methyl-3a,4,9,10-tetrahydro-2,9,10a-triaza-cyclopenta[b]fluorene-1,3-dione] and `COc1ccc2[nH]c3c(c2c1)C[C@@]1(C)C(=O)N(CCCNC(C)(C)C)C(=O)N1[C@@H]3c1cccc(O)c1` (racemic) [Example 167, (3aSR,10RS)-2-(3-tert-Butylamino-propyl)-10-(3-hydroxy-phenyl)-6-methoxy-3a-methyl-3a,4,9,10-tetrahydro-2,9,10a-triaza-cyclopenta[b]fluorene-1,3-dione] cannot be ordered by EC50: ≤ 39.8 nM for the first, ≤ 39.8 nM for the second.

`C=CCNCCN1C(=O)N2[C@H](c3cccc(O)c3)c3[nH]c4ccc(OCC)cc4c3C[C@@]2(C)C1=O` (racemic) [Example 157, (3aSR,10RS)-2-(2-Allylamino-ethyl)-6-ethoxy-10-(3-hydroxy-phenyl)-3a-methyl-3a,4,9,10-tetrahydro-2,9,10a-triaza-cyclopenta[b]fluorene-1,3-dione] and `CCOc1ccc2[nH]c3c(c2c1)C[C@@]1(C)C(=O)N(CCNCCO)C(=O)N1[C@@H]3c1cccc(O)c1` (racemic) [Example 159, (3aSR,10RS)-6-Ethoxy-2-[2-(2-hydroxy-ethylamino)-ethyl]-10-(3-hydroxy-phenyl)-3a-methyl-3a,4,9,10-tetrahydro-2,9,10a-triaza-cyclopenta[b]fluorene-1,3-dione] cannot be ordered by EC50: ≤ 39.8 nM for the first, 39.8 to 251 nM for the second.

`CCOc1ccc2[nH]c3c(c2c1)C[C@@]1(C)C(=O)N(CCN(C)CC)C(=O)N1[C@@H]3c1cccc(O)c1` (racemic) [Example 158, (3aSR,10RS)-6-Ethoxy-2-[2-(ethyl-methyl-amino)-ethyl]-10-(3-hydroxy-phenyl)-3a-methyl-3a,4,9,10-tetrahydro-2,9,10a-triaza-cyclopenta[b]fluorene-1,3-dione] and `CCOc1ccc2[nH]c3c(c2c1)C[C@@]1(C)C(=O)N(CCN(CC)CC)C(=O)N1[C@@H]3c1cccc(O)c1` (racemic) [Example 162, (3aSR,10RS)-2-(2-Diethylamino-ethyl)-6-ethoxy-10-(3-hydroxy-phenyl)-3a-methyl-3a,4,9,10-tetrahydro-2,9,10a-triaza-cyclopenta[b]fluorene-1,3-dione] cannot be ordered by EC50: ≤ 39.8 nM for the first, 39.8 to 251 nM for the second.

`CCOc1ccc2[nH]c3c(c2c1)C[C@@]1(C)C(=O)N(CCNCCOC)C(=O)N1[C@@H]3c1cccc(O)c1` (racemic) [Example 160, (3aSR,10RS)-6-Ethoxy-10-(3-hydroxy-phenyl)-2-[2-(2-methoxy-ethylamino)-ethyl]-3a-methyl-3a,4,9,10-tetrahydro-2,9,10a-triaza-cyclopenta[b]fluorene-1,3-dione] and `CCOc1ccc2[nH]c3c(c2c1)C[C@@]1(C)C(=O)N(CCN(C)C(C)C)C(=O)N1[C@@H]3c1cccc(O)c1` (racemic) [Example 163, (3aSR,10RS)-6-Ethoxy-10-(3-hydroxy-phenyl)-2-[2-(isopropyl-methyl-amino)-ethyl]-3a-methyl-3a,4,9,10-tetrahydro-2,9,10a-triaza-cyclopenta[b]fluorene-1,3-dione] cannot be ordered by EC50: 39.8 to 251 nM for the first, ≤ 39.8 nM for the second.

`CCOc1ccc2[nH]c3c(c2c1)C[C@@]1(C)C(=O)N(CCN2CCCCC2)C(=O)N1[C@@H]3c1cccc(O)c1` (racemic) [Example 164, (3aSR,10RS)-6-Ethoxy-10-(3-hydroxy-phenyl)-3a-methyl-2-(2-piperidin-1-yl-ethyl)-3a,4,9,10-tetrahydro-2,9,10a-triaza-cyclopenta[b]fluorene-1,3-dione] and `CCOc1ccc2[nH]c3c(c2c1)C[C@@]1(C)C(=O)N(CCN2CCCCCC2)C(=O)N1[C@@H]3c1cccc(O)c1` (racemic) [Example 166, (3aSR,10RS)-2-(2-Azepan-1-yl-ethyl)-6-ethoxy-10-(3-hydroxy-phenyl)-3a-methyl-3a,4,9,10-tetrahydro-2,9,10a-triaza-cyclopenta[b]fluorene-1,3-dione] fall in the same range of EC50: 39.8 to 251 nM for the first, 39.8 to 251 nM for the second.

`CCOc1ccc2[nH]c3c(c2c1)C[C@@]1(C)C(=O)N(CCN2CC=CCC2)C(=O)N1[C@@H]3c1cccc(O)c1` (racemic) [Example 165, (3aSR,10RS)-2-[2-(3,6-Dihydro-2H-pyridin-1-yl)-ethyl]-6-ethoxy-10-(3-hydroxy-phenyl)-3a-methyl-3a,4,9,10-tetrahydro-2,9,10a-triaza-cyclopenta[b]fluorene-1,3-dione] and `C=CCN(C)CCCN1C(=O)N2[C@H](c3cccc(O)c3)c3[nH]c4ccc(Cl)cc4c3C[C@@]2(C)C1=O` (racemic) [Example 169, (3aSR,10RS)-2-[3-(Allyl-methyl-amino)-propyl]-6-chloro-10-(3-hydroxy-phenyl)-3a-methyl-3a,4,9,10-tetrahydro-2,9,10a-triaza-cyclopenta[b]fluorene-1,3-dione] cannot be ordered by EC50: 39.8 to 251 nM for the first, ≤ 39.8 nM for the second.

With `CCN(CCO)CCCN1C(=O)N2[C@H](c3cccc(O)c3)c3[nH]c4ccc(Cl)cc4c3C[C@@]2(C)C1=O` (racemic) [Example 168, (3aSR,10RS)-6-Chloro-2-{3-[ethyl-(2-hydroxy-ethyl)-amino]-propyl}-10-(3-hydroxy-phenyl)-3a-methyl-3a,4,9,10-tetrahydro-2,9,10a-triaza-cyclopenta[b]fluorene-1,3-dione] the EC50 was ≤ 39.8 nM.
